“Also recorded” adds a separate entry of the source.
Assays:
Format in all cases: cell-based, human
[1] = test system: MRC-5 cells; test: Incorporation of 3H-BMAA radiolabel into cell proteins (TCA precipitation, liquid scintillation counting); settings: 3H-BMAA 31.25 nM, 16 hours
Procedure: MRC-5 cells were incubated with ^3H-BMAA (31.25 nM) in HBSS containing 10% FCS. After 2, 4, and 16 hours, cells were washed three times in phosphate buffered saline and lysed by freeze-thawing in Triton X-100. The protein concentration in the lysate was determined using the bicinchoninic acid assay (BCA) (Smith, et al., Anal Biochem 150, 76-85 (1985)) (and radiolabel in the cell lysate quantified by liquid scintillation counting (LSC). Cell proteins were then isolated by trichloroacetic acid (TCA) (5%) precipitation washed three times in TCA (5%) and dissolved in formic acid.
To determine if incorporation of radiolabel into proteins was protein synthesis dependent MRC-5, SH-SY5Y and HUVEC cells were incubated with ^3H-BMAA (31.25 nM) with or without CHX 2 μg/ml for 16 hours. The amount of radiolabel present in cell proteins in the CHM-treated cultures was expressed relative to that of control cultures, which was set at 100%. Parallel cultures of MRC-5 cells were incubated with ^3H-leucine (41 nM) with or without CHX 2 μg/ml under identical culture conditions and processed as before.
To examine the ability of individual amino acids to reduce incorporation or radiolabel into proteins, MRC-5 cells were incubated with ^3H-BMAA (31.25 nM) for 16 hours in the presence of individual amino acids (250 μM) and the radiolabel present in the cell proteins assessed as before. All of the 20 protein amino acids (L-isomers) were examined individually in triplicate cell cultures. […] Incorporation of radiolabel was determined relative to cells incubated in medium containing no serine. MRC-5 cells were then incubated with ^3H-BMAA (31.25 nM) for 16 hours in HBSS alone, HBSS containing all 20 protein amino acids (400 μM) or 19 protein amino acids except L-serine and the amount of radiolabel in cell protein assessed as before.

[2] = test system: MRC-5 cells; test: Protein-bound non-labeled BMAA in hydrolysed cell proteins by triple quadrupole LC/MS/MS; settings: BMAA 250-1000 μM with L-serine 250-1000 μM, or CHX
Procedure: After incubation with ^3H-BMAA or cold BMAA, cells were washed three times with PBS, lysed by freeze thawing in Triton-X-100 (0.1%) and cell proteins precipitated in TCA (5%). Protein pellets were washed three times with TCA (5%) and hydrolysed in boiling 6 M HCl at 110° C. for 16 hours as previously described (Mondo, et al., Mar Drugs 10, 509-520 (2012)). Protein pellets were freeze-dried and reconstituted in 20 mM HCl. Particulates were removed by centrifugation through […] membranes and the hydrolysate derivatized in AccQ·Tag (Waters Corporation, Australia). Amino acids were separated on a Waters C-18 column using a method and gradient as described previously (Mondo, et al., Mar Drugs 10, 509-520 (2012)). For recovery of radiolabel in hydrolysed samples, fractions were collected manually every minute for 40 minutes, diluted into 5 ml scintillant (Ultima Gold™ scintillant, Perkin Elmer) and disintegrations per minute (DPM) determined by LSC.
To further confirm that BMAA was present in cell proteins and incorporation was inhibited by L-serine, MRC-5 cells were incubated with a range of concentrations of BMAA (250-1000 μM) or BMAA with L-serine (250-1000 μM) and hydrolysed cell proteins were analyzed by tandem mass spectroscopy on a triple quadrupole LC/MS/MS. […]

[3] = test system: SH-SY5Y cells; test: Annexin V binding (apoptosis) by flow cytometry; settings: 500 μM BMAA, co-incubation with CHX 2 μg/mL or L-serine 50 μM
Procedure: Late-stage apoptosis or necrosis was measured by simultaneous staining with propidium iodide and Annexin V using the BD Pharmingen™ Annexin V—FITC apoptosis detection kit and flow cytometry performed as described previously (Dunlop, et al., Biochem J 435, 207-216 (2010)).

## N[C@@H](CO)C(=O)O [L-serine]
[1]; 19 protein amino acids 400 μM without L-serine
  incorporation of BMAA into proteins when L-serine was omitted from the amino acid mixture: significantly increased
[1]; L-serine 0, 50, 100 and 250 μM
  effect on incorporation of 3H-BMAA into cell proteins: inhibited in the presence of L-serine in a concentration-dependent manner; also recorded: inhibition of incorporation of radiolabel into cell proteins
[2]
  effect on incorporation of non-labeled BMAA into cell proteins: inhibited
[3]
  effect on BMAA-induced Annexin V binding / apoptosis: abrogated; also recorded: significantly reduced

Reference: patent publication US11974551B2, “L-serine compositions, methods and uses for treating neurodegenerative diseases and disorders” (priority 2011, dated 2024)
